Test results from patent publication US12036226B2, “Methods of treating subjects having diabetes with chronic kidney disease” (Poxel SA, priority 2018, dated 2024).

Tested on: subjects with T2DM and CKD stage 3B or 4
Assay: Phase 1b 28-day safety, tolerability and PK study in subjects with T2DM and CKD stage 3B or 4
Assay type: in vivo
From the text: An Open Label, Parallel Arm Study to Assess the Safety, Tolerability, and Pharmacokinetics of Imeglimin in Subjects with Type 2 Diabetes Mellitus (T2DM) and Moderate to Severe Chronic Kidney Disease (CKD)
This Phase 1b study is to assess the safety, tolerability and pharmacokinetics (PK) of imeglimin in subjects with T2DM and CKD stage 3B or 4.
Subjects will be randomly allocated to receive one of three treatments or placebo.
Doses which are below the minimally acceptable doses are acceptable if stable for 12 weeks prior to Screening as per prescribing information. […] Primary Outcome Measures […]
Safety can be evaluated by assessment of clinical laboratory tests, physical examinations, vital signs measurements, and ECG readings at various time points during the study, and by the documentation of AEs.
The incidence of treatment-emergent adverse events (TEAE) will be summarized by treatment.
Plasma lactate will be summarized descriptively by absolute value at each visit by treatment group, together with the corresponding changes from baseline.
Pharmacokinetics (PK) data can be descriptively summarized by treatment group. PK parameters will be determined using noncompartmental methods. […] Steady-state can be evaluated using the trough concentration data.

C[C@H]1N=C(N(C)C)N=C(N)N1 [imeglimin, (6R)—N^2, N^2,6-trimethyl-3,6-dihydro-1,3,5-triazine-2,4-diamine]
Subjects with any TEAE (500 mg BID, CKD3b (n = 8)): 2 (25%) n, %
Subjects with any TEAE by maximum severity: Grade 1 - Mild (500 mg BID, CKD3b (n = 8)): 1 (13%) n, %
Subjects with any TEAE by maximum severity: Grade 2 - Moderate (500 mg BID, CKD3b (n = 8)): 1 (13%) n, %
Subjects with any TEAE by maximum severity: Grade 3 - Severe (500 mg BID, CKD3b (n = 8)): 0 n, %
Subjects with any TEAE by maximum severity: Grade 4 - Life-threatening (500 mg BID, CKD3b (n = 8)): 0 n, %
Subjects with any TEAE by maximum severity: Grade 5 - Death (500 mg BID, CKD3b (n = 8)): 0 n, %
Subjects with any study drug related TEAE (500 mg BID, CKD3b (n = 8)): 0 n, %
Subjects with any study drug related TEAE: Grade 1 - Mild (500 mg BID, CKD3b (n = 8)): 0 n, %
Subjects with any study drug related TEAE: Grade 2 - Moderate (500 mg BID, CKD3b (n = 8)): 0 n, %
Subjects with any study drug related TEAE: Grade 3 - Severe (500 mg BID, CKD3b (n = 8)): 0 n, %
Subjects with any study drug related TEAE: Grade 4 - Life-threatening (500 mg BID, CKD3b (n = 8)): 0 n, %
Subjects with any study drug related TEAE: Grade 5 - Death (500 mg BID, CKD3b (n = 8)): 0 n, %
TEAE: Gastrointestinal disorders (500 mg BID, CKD3b (n = 8)): 1 (13%) n, %
Subjects with any TEAE (500 mg BID, CKD4 (n = 5)): 1 (20%) n, %
Subjects with any TEAE by maximum severity: Grade 1 - Mild (500 mg BID, CKD4 (n = 5)): 0 n, %
Subjects with any TEAE by maximum severity: Grade 2 - Moderate (500 mg BID, CKD4 (n = 5)): 1 (20%) n, %
Subjects with any TEAE by maximum severity: Grade 3 - Severe (500 mg BID, CKD4 (n = 5)): 0 n, %
Subjects with any TEAE by maximum severity: Grade 4 - Life-threatening (500 mg BID, CKD4 (n = 5)): 0 n, %
Subjects with any TEAE by maximum severity: Grade 5 - Death (500 mg BID, CKD4 (n = 5)): 0 n, %
Subjects with any study drug related TEAE (500 mg BID, CKD4 (n = 5)): 0 n, %
Subjects with any study drug related TEAE: Grade 1 - Mild (500 mg BID, CKD4 (n = 5)): 0 n, %
Subjects with any study drug related TEAE: Grade 2 - Moderate (500 mg BID, CKD4 (n = 5)): 0 n, %
Subjects with any study drug related TEAE: Grade 3 - Severe (500 mg BID, CKD4 (n = 5)): 0 n, %
Subjects with any study drug related TEAE: Grade 4 - Life-threatening (500 mg BID, CKD4 (n = 5)): 0 n, %
Subjects with any study drug related TEAE: Grade 5 - Death (500 mg BID, CKD4 (n = 5)): 0 n, %
TEAE: Gastrointestinal disorders (500 mg BID, CKD4 (n = 5)): 0 n, %
Subjects with any TEAE (1000 mg BID, CKD3b (n = 6)): 4 (67%) n, %
Subjects with any TEAE by maximum severity: Grade 1 - Mild (1000 mg BID, CKD3b (n = 6)): 2 (33%) n, %
Subjects with any TEAE by maximum severity: Grade 2 - Moderate (1000 mg BID, CKD3b (n = 6)): 2 (33%) n, %
Subjects with any TEAE by maximum severity: Grade 3 - Severe (1000 mg BID, CKD3b (n = 6)): 0 n, %
Subjects with any TEAE by maximum severity: Grade 4 - Life-threatening (1000 mg BID, CKD3b (n = 6)): 0 n, %
Subjects with any TEAE by maximum severity: Grade 5 - Death (1000 mg BID, CKD3b (n = 6)): 0 n, %
Subjects with any study drug related TEAE (1000 mg BID, CKD3b (n = 6)): 2 (33%) n, %
Subjects with any study drug related TEAE: Grade 1 - Mild (1000 mg BID, CKD3b (n = 6)): 1 (17%) n, %
Subjects with any study drug related TEAE: Grade 2 - Moderate (1000 mg BID, CKD3b (n = 6)): 1 (17%) n, %
Subjects with any study drug related TEAE: Grade 3 - Severe (1000 mg BID, CKD3b (n = 6)): 0 n, %
Subjects with any study drug related TEAE: Grade 4 - Life-threatening (1000 mg BID, CKD3b (n = 6)): 0 n, %
Subjects with any study drug related TEAE: Grade 5 - Death (1000 mg BID, CKD3b (n = 6)): 0 n, %
TEAE: Gastrointestinal disorders (1000 mg BID, CKD3b (n = 6)): 1 (17%) n, %
Subjects with any TEAE (1000 mg BID, CKD4 (n = 7)): 4 (57%) n, %
Subjects with any TEAE by maximum severity: Grade 1 - Mild (1000 mg BID, CKD4 (n = 7)): 2 (29%) n, %
Subjects with any TEAE by maximum severity: Grade 2 - Moderate (1000 mg BID, CKD4 (n = 7)): 2 (29%) n, %
Subjects with any TEAE by maximum severity: Grade 3 - Severe (1000 mg BID, CKD4 (n = 7)): 0 n, %
Subjects with any TEAE by maximum severity: Grade 4 - Life-threatening (1000 mg BID, CKD4 (n = 7)): 0 n, %
Subjects with any TEAE by maximum severity: Grade 5 - Death (1000 mg BID, CKD4 (n = 7)): 0 n, %
Subjects with any study drug related TEAE (1000 mg BID, CKD4 (n = 7)): 1 (14%) n, %
Subjects with any study drug related TEAE: Grade 1 - Mild (1000 mg BID, CKD4 (n = 7)): 1 (14%) n, %
Subjects with any study drug related TEAE: Grade 2 - Moderate (1000 mg BID, CKD4 (n = 7)): 0 n, %
Subjects with any study drug related TEAE: Grade 3 - Severe (1000 mg BID, CKD4 (n = 7)): 0 n, %
Subjects with any study drug related TEAE: Grade 4 - Life-threatening (1000 mg BID, CKD4 (n = 7)): 0 n, %
Subjects with any study drug related TEAE: Grade 5 - Death (1000 mg BID, CKD4 (n = 7)): 0 n, %
TEAE: Gastrointestinal disorders (1000 mg BID, CKD4 (n = 7)): 2 (29%) n, %
Subjects with any TEAE (1500 mg QD, CKD3b (n = 17)): 4 (57%) n, %
Subjects with any TEAE by maximum severity: Grade 1 - Mild (1500 mg QD, CKD3b (n = 17)): 3 (43%) n, %
Subjects with any TEAE by maximum severity: Grade 2 - Moderate (1500 mg QD, CKD3b (n = 17)): 1 (14%) n, %
Subjects with any TEAE by maximum severity: Grade 3 - Severe (1500 mg QD, CKD3b (n = 17)): 0 n, %
Subjects with any TEAE by maximum severity: Grade 4 - Life-threatening (1500 mg QD, CKD3b (n = 17)): 0 n, %
Subjects with any TEAE by maximum severity: Grade 5 - Death (1500 mg QD, CKD3b (n = 17)): 0 n, %
Subjects with any study drug related TEAE (1500 mg QD, CKD3b (n = 17)): 1 (14%) n, %
Subjects with any study drug related TEAE: Grade 1 - Mild (1500 mg QD, CKD3b (n = 17)): 1 (14%) n, %
Subjects with any study drug related TEAE: Grade 2 - Moderate (1500 mg QD, CKD3b (n = 17)): 0 n, %
Subjects with any study drug related TEAE: Grade 3 - Severe (1500 mg QD, CKD3b (n = 17)): 0 n, %
